The values that follow come from paper PMC12412453 (Toxicology, 2021).

Data set [1] relates to primary macaque hepatocytes (PMHs). The data set is described as follows: Cytotoxicity by ATP assay. As to conditions: for Cytotoxicity / Max. con.: PMH, 24-h treatment; for Max. con.: maximum concentration.
For data set [2] the following is noted: cited from earlier work.
The conditions of data set [3]: reported findings; ref References column of Table 1; cited from earlier work.
Data set [4] concerns primary human hepatocytes (PHHs). As to conditions: cited from earlier work; for Cytotoxicity: ATP assay, 24-h treatment.
Data set [5] shares this test system. Conditions: cited from earlier work.
The subject of data set [6] is primary macaque hepatocytes (PMHs). As to conditions: rhesus macaque, 24 h.
The test system is the same in data set [7]. Conditions: rhesus macaque, 24 h. The source holds these as a separate data set.
A short description of data set [8]: Cytotoxicity by ATP assay. Conditions: rhesus macaque.
In data set [9] the test system is primary macaque hepatocytes (PMHs). The data set is described as follows: CometChip assay. Conditions: for BMDU/BMDL / DNA damage (ratio of %DNA in tail at highest concentration to vehicle control) / LEC (lowest effective concentration) / BMDL50–BMDU50 / Potency ranking: PMH; for BMD50: PMH CometChip data, PROAST exponential model; for DNA damage (ratio of %DNA in tail at highest concentration to vehicle control) / LEC (lowest effective concentration): 24-h treatment; for LEC (lowest effective concentration): lowest concentration positive in comet assay; for BMDL50–BMDU50: 90 % confidence interval of BMD50; for Potency ranking: rank by BMD50 among nine positive compounds.

In data set [10] the test system is peripheral blood and bone marrow of rhesus macaques. Conditions: single and repeated administration, ref Hotchkiss et al., 2008; cited from earlier work.
Data set [11] has as its system bone marrow of rhesus macaques. Conditions: ref Rao et al., 2005; cited from earlier work.
The subject of data set [12] is peripheral blood lymphocytes of male rhesus macaques. As to conditions: single dose of 50 mg/kg, ref Dobrovolsky et al., 2009; cited from earlier work.
The subject of the next data set is Vero cells. As to conditions: ref Gomes et al., 2021; cited from earlier work.
Where [13] appears, read: reported findings, ref References column of Table 1.
Where [14] appears, read: PHH, maximum concentration, ref Seo et al., 2020.
Setting [15] is: PHH CometChip data reanalyzed using PROAST, ref Seo et al., 2020.
The mark [16] stands for this setting: PHH, 90 % confidence interval of BMD50, ref Seo et al., 2020.
Setting [17] is: PHH, rank by BMD50 among nine positive compounds, ref Seo et al., 2020.
Setting [18] is: PHH, lowest concentration positive in comet assay, ref Seo et al., 2020.

“And” between values parts separate entries of the source, which are not always exact repeats. Equal entries are not always repeated. Where two headings read alike, the source gives them in different places.

With `c1ccc2c(c1)cc1ccc3cccc4ccc2c1c34` [B[a]P, benzo[a]pyrene], the Cytotoxicity result in data set [1] (ATP assay) was “+ (11–30 %)”; in data set [4] (PHH, ref Seo et al., 2020), “+ (11–30 %)”. Also, the “Genotoxicity assay findings in vivo” value in data set [2] (setting [13]) was “(+) for comet, MN, Pig-a and gene mutations”. Moreover, in [3], the “Genotoxicity assay findings in vitro” value is “(+) for MLA, CA, MN, Pig-a, comet, Hprt, and UDS”. Also, the Max. con. in data set [4] (setting [14]) and in data set [6] was 100 µM throughout. In addition, in [5] (setting [15]), the BMD50 is 9.2 µM. Also, the “BMDL50–BMDU50” value in data set [5] (setting [16]) was 5.2 to 16.3 µM. Further, in data set [5] (setting [17]), the Potency ranking is reported as 5.
In the case of `COS(C)(=O)=O` [MMS, methyl methanesulfonate], the “Genotoxicity assay findings in vivo” value in data set [2] (in vivo) was “(+) for CA, MN, UDS, Pig-a, TG, comet”. Also, in data set [7], the “BMDL50–BMDU50” value is 14.2 to 33.7 µM, the BMDU/BMDL was 2.4, the “LEC (lowest effective concentration)” value came out at 125 µM and the Potency ranking came out at 6. In addition, the Max. con. in data set [4] is 500 µM. In addition, in data set [5], the BMD50 is 1.0 µM, the “BMDL50–BMDU50” value is 0.5 to 1.9 µM, the BMDU/BMDL is recorded as 3.5 and the “LEC (lowest effective concentration)” value is 62.5 µM. In addition, the Potency ranking in [5] is 3. For the same compound, the Max. con. in data set [6] amounted to 500 µM.
As to `O=P1(N(CCCl)CCCl)NCCCO1` (stereo not drawn) [CPA, cyclophosphamide], the Max. con. was 5000 µM in data set [1] and 10,000 μM in data set [4] (setting [14]). Besides, the Cytotoxicity result in data set [1] (ATP assay) was “+++ (> 50 %)”; in [4] (PHH, ref Seo et al., 2020), “+ (11–30 %)”. For the same compound, the viability – broadly, the share of living cells, or the viability signal relative to a control – at 24 h, 2500 µM in data set [8] worked out at 50%. The “Genotoxicity assay findings in vivo” value in data set [2] (setting [13]) was “(+) for CA, MN, Pig-a, TG, and comet”. Also, the BMDU/BMDL in data set [9] is listed as 2.3; in [5] (PHH, ref Seo et al., 2020), 3.2. Moreover, the BMD50 was 253 µM and 253.8 µM in data set [9]; 248.2 µM in [5] (setting [15]). For the same compound, the “DNA damage (ratio of %DNA in tail at highest concentration to vehicle control)” value in [9] is reported as “+++ (the ratio > 5)”; in data set [5] (PHH, ref Seo et al., 2020) it was “++ (2 < ratio ≤ 5)”. Also, the “LEC (lowest effective concentration)” value is 937.5 µM in data set [9] and 1768 µM in data set [5] (setting [18]). Further, the “BMDL50–BMDU50” value was 165 to 372 µM in data set [9] and 135 to 437 µM in [5] (setting [16]). Further, the Potency ranking in [9] is recorded as 7; in data set [5] (setting [17]), 8. For the same compound, in data set [9] (PMHs, highest acceptable concentration, range given for four compounds together), the “fold increase in % tail DNA (DNA damage) compared to the vehicle control” value was 6.1–8.1 fold. The “LEC fold higher in PHHs than in PMHs” value in [9] (comet assay LEC, PHH vs PMH) is on record as 2 fold. The micronucleated reticulocytes result in data set [10] is given as “significantly increased”. Also, the cell viability – broadly, the share of living cells, or the viability signal relative to a control – in data set [4] (PHHs, 10,000 μM, ref Seo et al., 2020) is reported as 88%.
In the case of `S=P(N1CC1)(N1CC1)N1CC1` [thiotepa], in [11], the “chromosomal aberrations in bone marrow” value was “induced chromosomal aberrations”.
On to `CCN(N=O)C(N)=O` [ENU, N-ethyl-N-nitrosourea], for which the Max. con. in [1] and in data set [4] (setting [14]) was 3200 µM in each case. Further, the Cytotoxicity entry in [1] (ATP assay) is listed as “+ (11–30 %)”; in data set [4] (PHH, ref Seo et al., 2020), “− (cytotoxicity of 0–10 %)”. Moreover, in data set [1] (PMHs, ATP assay, 24-h exposure), the “cytotoxic effects (in words)” value was “cytotoxic effects over the same range of concentrations, but only in PMHs”. In addition, the “Pig-a and Hprt mutant frequencies” value in [12] is recorded as “significantly increased”. In addition, in data set [2] (setting [13]), the “Genotoxicity assay findings in vivo” value was “(+) for CA, MN, Pig-a, TG, comet”. In addition, in data set [3], the “Genotoxicity assay findings in vitro” value is “(+) for MLA, CA, MN, Pig-a, Hprt, comet, and UDS”. Moreover, the “BMD50 fold higher in PMHs than in PHHs (lower in PHHs)” value in [9] (CometChip BMD50, PMH vs PHH) is listed as 8–22 fold. For the same compound, the BMDU/BMDL was 2.3 in data set [9] and 3.3 in data set [5] (PHH, ref Seo et al., 2020). For the same compound, the results for the BMD50 in data set [9] and in data set [5] (setting [15]) were 683 µM and 47.3 µM, respectively. Besides, the “DNA damage (ratio of %DNA in tail at highest concentration to vehicle control)” value in data set [9] is recorded as “+++ (the ratio > 5)”; in [5] (PHH, ref Seo et al., 2020), “+++ (the ratio > 5)”. For the same compound, the results for the “LEC (lowest effective concentration)” value in data set [9] and in [5] (setting [18]) were 2400 µM and 800 µM, respectively. For the same compound, the “BMDL50–BMDU50” value was 439 to 1030 µM in [9] and 25.3 to 83.5 µM in data set [5] (setting [16]). In addition, the results for the Potency ranking in [9] and in data set [5] (setting [17]) were 8 and 7, respectively.
As for `Cc1c(N(C)CS(=O)(=O)[O-])c(=O)n(-c2ccccc2)n1C.[Na+]` [dipyrone], the “DNA damage by comet assay” value in the data set on Vero cells is “significant increases in DNA damage”.
